Patent US9642889B2, “Macrocyclic inhibitors of Flaviviridae viruses” (Selcia Limited, priority 2012, dated 2017)
Read-outs that look alike come from different tables or passages of the source.

Legend:
cyclophilin A = cyclophilin A (Homo sapiens, UniProt P62937); assay: Cyclophilin A TR-FRET competitive binding assay; details: competition with CsA-Cy5 for His-tagged CypA, two-hour incubation
Description: Cyclophilin A TR-FRET Competitive Binding Assay
Inhibitor potency was measured using a competitive binding assay with a time-resolved fluorescence resonance energy transfer (TR-FRET) readout. […] An IC50 value was calculated using a four-parameter logistic fit.

[1] = system: Huh-7 HCV replicon cells (1b replicon); assay: anti-HCV activity in Huh-7 cell line harboring a HCV replicon (luciferase readout); assay type: cell-based; details: for Replicon 1b % inhibition at 1 μM: 1b replicon, 1 μM compound
[2] = Hepatitis C virus, Huh-7, read-out: Replicon 1b % inhibition at 1 μM
[3] = Hepatitis C virus, Huh-7, 72 h, inhibition of viral replication, Huh-7 HCV replicon cells, 3 days, read-out: EC50
[4] = Hepatitis C virus, Huh-7, read-out: Replicon 1b % inhibition at 1 μM, 1b replicon, 1 μM compound
[5] = inhibition of viral replication, Huh-7 HCV replicon cells, 3 days, read-out: EC50

Chain of cyclophilin A (P62937 whole entry, species assumed): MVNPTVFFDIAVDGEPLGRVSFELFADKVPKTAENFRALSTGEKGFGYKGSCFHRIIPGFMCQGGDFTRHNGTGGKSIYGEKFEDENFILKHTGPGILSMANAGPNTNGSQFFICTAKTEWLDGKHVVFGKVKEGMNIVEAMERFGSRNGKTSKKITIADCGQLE

SMILES | IC50 (cyclophilin A) [nM] | EC50 [1, 3] [nM] | inhibition at 1 µM [1, 4] [%] | other results
CCN1CCOC2(/C=C/c3ccc4ccc(nc4c3)[C@@H](C)NC(=O)[C@@H]3CCCN(N3)C(=O)[C@H](C)NC(=O)[C@H](C(C)C)OC2=O)C1 (stereo partly shown) [Compound 96] | < 100 | – | – | EC50 ([1]; Hepatitis C virus, Huh-7, 72 h): < 1000 nM; inhibition at 1 µM [1, 2]: 91%
C[C@@H]1NC(=O)[C@H](C(C)(C)F)OC(=O)C2(/C=C/c3ccc4ccc(nc4c3)[C@@H](C)NC(=O)[C@@H]3CCCN(N3)C1=O)COCOC2 [Compound 72] | 1000 to 10000 | 1100 to 10000 | -6 | –
CCC(=O)O[C@H]1CC[C@]2(/C=C/c3ccc4ccc(nc4c3)[C@@H](C)NC(=O)[C@@H]3CCCN(N3)C(=O)[C@H](C)NC(=O)[C@H](C(C)C)OC2=O)CC1 [Compound 111] | < 100 | < 1000 | 99 | –
CC1/C=C/c2cc3cc(ccc3cn2)[C@@H](C)NC(=O)[C@@H]2CCCN(N2)C(=O)[C@H](C)NC(=O)[C@H](C(C)C)OC(=O)C1C (stereo partly shown) [Compound 11] | < 100 | < 1000 | 96 | –
CON=C1CCC2(/C=C/c3ccc4ccc(nc4c3)[C@@H](C)NC(=O)[C@@H]3CCCN(N3)C(=O)[C@H](C)NC(=O)[C@H](C(C)C)OC2=O)CC1 (stereo partly shown) [Compound 83] | < 100 | < 1000 | 100 | –
CO[C@@H]1/C=C/c2cc3cc(ccc3cn2)[C@@H](C)NC(=O)[C@@H]2CCCN(N2)C(=O)[C@H](C)NC(=O)[C@H](C(C)C)OC(=O)[C@@H]1C [Compound 2] | < 100 | < 1000 | 98 | –
CC(C)[C@@H]1NCCC/C=C/c2cc3cc(ccc3cn2)[C@@H](C)OC(=O)[C@@H]2CCCN(N2)C(=O)[C@H](C)NC1=O [Compound 20] | 101 to 1000 | < 1000 | 88 | –
CC(C)[C@@H]1OC(=O)[C@]2(/C=C/c3ccc4ccc(nc4c3)[C@@H](C)N(C)C(=O)[C@@H]3CCCN(N3)C(=O)[C@H](C)NC1=O)CC[C@H](O)CC2 [Compound 42] | < 100 | < 1000 | 96 | –
CO[C@@H]1CC/C=C/c2cccc(c2)[C@@H](C)NC(=O)[C@@H]2CCCN(N2)C(=O)[C@H](C)NC(=O)[C@H](C(C)C)OC(=O)[C@@H]1C [Compound 1] | < 100 | < 1000 | 97 | –
CC1NC(=O)C(C(C)C)OC(=O)C2(/C=C/c3ccc4ccc(nc4c3)C(C)NC(=O)C3CCCN(N3)C1=O)CCC(O)CC2 (single isomer, unassigned) [Compound 76] | – | – | – | Replicon 1b % inhibition at 1 μM [1]: 69%; EC50 [1, 5]: < 1000 nM
CC(C)[C@@H]1OC(=O)C2(/C=C/c3ccc4ccc(nc4c3)[C@@H](C)NC(=O)[C@@H]3CCCN(N3)C(=O)[C@H](C)NC1=O)CN(C(=O)OC(C)(C)C)CCO2 (single isomer, unassigned) [Compound 45] | < 100 | – | – | –
CC(C)[C@@H]1OC(=O)C2(/C=C/c3ccc4ccc(nc4c3)[C@@H](C)NC(=O)[C@@H]3CCCN(N3)C(=O)[C@H](C)NC1=O)COCCOC2 [Compound 57] | – | < 1000 | 100 | –
CC(C)[C@@H]1OCCCCCc2cc3cc(ccc3cn2)[C@@H](C)OC(=O)[C@@H]2CCCN(N2)C(=O)[C@H](C)NC1=O [Compound 24] | < 100 | < 1000 | 83 | –
CC(C)C(=O)O[C@H]1CC[C@@]2(/C=C/c3ccc4ccc(nc4c3)[C@@H](C)NC(=O)[C@@H]3CCCN(N3)C(=O)[C@H](C)NC(=O)[C@H](C(C)C)OC2=O)CC1 [Compound 80] | < 100 | < 1000 | 99 | –
CC(C)[C@H]1C(=O)N[C@@H](C)C(=O)N2CCC[C@H](N2)C(=O)O[C@H](C)c2ccc3cnc(cc3c2)/C=C/C(C)(C)C(=O)N1C [Compound 22] | < 100 | – | – | –
CC(C)[C@@H]1OC(=O)[C@]2(/C=C/c3ccc4ccc(nc4c3)[C@@H](C)NC(=O)[C@@H]3CCCN(N3)C(=O)[C@H](C)NC1=O)CCOC(C)(C)C2 [Compound 91] | < 100 | < 1000 | 100 | –
CC(C)[C@@H]1OC(=O)[C@H](CCC(C)N(C)C)C/C=C/c2cc3cc(ccc3cn2)[C@@H](C)NC(=O)[C@@H]2CCCN(N2)C(=O)[C@H](C)NC1=O (mixture of isomers) [Compound 16] | < 100 | 1100 to 10000 | 20 | –
C[C@@H]1NC(=O)[C@H](C2CCC2)OC(=O)C2(/C=C/c3ccc4ccc(nc4c3)[C@@H](C)NC(=O)[C@@H]3CCCN(N3)C1=O)COCOC2 [Compound 64] | – | – | – | EC50 ([1]; Hepatitis C virus, Huh-7, 72 h): < 1000 nM; inhibition at 1 µM [1, 2]: 100%
CO[C@H](C)[C@@H]1OC(=O)C(C)(C)/C=C/c2ccc3ccc(nc3c2)[C@@H](C)NC(=O)[C@@H]2CCCN(N2)C(=O)[C@H](C)NC1=O [Compound 60] | < 100 | < 1000 | 96 | –
C[C@@H]1NC(=O)[C@H](C2CC2)OC(=O)C(C)(C)/C=C/c2ccc3ccc(nc3c2)[C@@H](C)NC(=O)[C@@H]2CCCN(N2)C1=O [Compound 78] | < 100 | < 1000 | 99 | –

SMILES | IC50 (cyclophilin A) [nM] | EC50 [1, 3] [nM] | inhibition at 1 µM [1, 4] [%] | other results
CC(C)[C@@H]1OC(=O)C2(/C=C/c3ccc4ccc(nc4c3)[C@@H](C)NC(=O)[C@@H]3CCCN(N3)C(=O)[C@H](C)NC1=O)CCOCC2 [Compound 88] | – | < 1000 | 100 | –
CC(C)[C@@H]1OC(=O)C2(/C=C/c3ccc4ccc(nc4c3)[C@@H](C)NC(=O)[C@]3(C)CCCN(N3)C(=O)[C@H](C)NC1=O)CCC(O)CC2 (mixture of isomers) [Compound 94] | < 100 | < 1000 | 94 | –
CC(C)[C@@H]1OC(=O)[C@H](C)[C@H](O)CC/C=C/c2cccc(c2)[C@@H](C)NC(=O)[C@@H]2CCCN(N2)C(=O)[C@H](C)NC1=O [Compound 7, (E)-(2R,5S,11S,14S,17R,18R)-18-Hydroxy-14-isopropyl-2,11,17-trimethyl-15-oxa-3,9,12,28-tetraaza-tricyclo[21.3.1.1*5,9*]octacosa-1(26),21,23(27),24-tetraene 4,10,13,16-tetraone] | < 100 | < 1000 | 94 | –
C[C@@H]1NC(=O)[C@H](C2CC2)OC(=O)C2(/C=C/c3ccc4ccc(nc4c3)[C@@H](C)NC(=O)[C@@H]3CCCN(N3)C1=O)COCCOC2 [Compound 93] | < 100 | < 1000 | 98 | –
COC[C@@]1(C)/C=C/c2ccc3ccc(nc3c2)[C@@H](C)N(C)C(=O)[C@@H]2CCCN(N2)C(=O)[C@H](C)NC(=O)[C@H](C(C)C)OC1=O [Compound 38] | < 100 | – | – | –
CC(C)C(=O)O[C@H]1CC[C@]2(/C=C/c3ccc4ccc(nc4c3)[C@@H](C)NC(=O)[C@@H]3CCCN(N3)C(=O)[C@H](C)NC(=O)[C@H](C(C)C)OC2=O)CC1 [Compound 81] | < 100 | < 1000 | 100 | –
CC1/C=C/c2ccc3ccc(nc3c2)[C@@H](C)NC(=O)[C@@H]2CCCN(N2)C(=O)[C@H](C)NC(=O)[C@H](C(C)C)OC1 (single isomer, unassigned) [Compound 34] | < 100 | < 1000 | 91 | –
CC(=O)O[C@H]1CC[C@]2(/C=C/c3ccc4ccc(nc4c3)[C@@H](C)NC(=O)[C@@H]3CCCN(N3)C(=O)[C@H](C)NC(=O)[C@H](C(C)C)OC2=O)CC1 [Compound 112] | < 100 | < 1000 | 100 | –
CC1NC(=O)C(C(C)C)OC(=O)C2(/C=C/c3ccc4ccc(nc4c3)C(C)NC(=O)C3CCCN(N3)C1=O)CCC(O)CC2 (single isomer, unassigned) [Compound 75] | – | – | – | Replicon 1b % inhibition at 1 μM [1]: 100%; EC50 [1, 5]: < 1000 nM
COC[C@]1(C)/C=C/c2ccc3ccc(nc3c2)[C@@H](C)NC(=O)[C@@H]2CCCN(N2)C(=O)[C@H](C)NC(=O)[C@H](C(C)C)OC1=O [Compound 58] | < 100 | – | – | –
CC1NC(=O)C(C(C)C)OC(=O)C2(/C=C/c3ccc4ccc(nc4c3)C(C)NC(=O)C3CCCN(N3)C1=O)CCC(O)CC2 (single isomer, unassigned) [Compound 77] | – | – | – | Replicon 1b % inhibition at 1 μM [1]: 56%; EC50 [1, 5]: < 1000 nM
COC[C@@]1(C)/C=C/c2ccc3ccc(nc3c2)[C@@H](C)NC(=O)[C@@H]2CCCN(N2)C(=O)[C@H](C)NC(=O)[C@H](C(C)C)OC1=O [Compound 36] | < 100 | – | – | –
COC1CCC2(/C=C/c3ccc4ccc(nc4c3)[C@@H](C)NC(=O)[C@@H]3CCCN(N3)C(=O)[C@H](C)NC(=O)[C@H](C(C)C)OC2=O)CC1 (stereo partly shown) [Compound 92] | – | < 1000 | 100 | –
CC(C)[C@@H]1OC(=O)C(C)(C)/C=C/c2ccc3ccc(nc3c2)[C@@H](C)OC(=O)[C@@H]2CCCN(N2)C(=O)[C@H](C)NC1=O [Compound 19] | < 100 | – | – | –
CC1NC(=O)C(C(C)C)OC(=O)C2(/C=C/c3ccc4ccc(nc4c3)C(C)NC(=O)C3CCCN(N3)C1=O)CCC(O)CC2 (single isomer, unassigned) [Compound 74] | – | < 1000 | – | Replicon 1b % inhibition at 1 μM [1]: 100%
CC(C)[C@@H]1OC(=O)C(C)(C)/C=C/c2ccc3ccc(nc3c2)CN(C)C(=O)[C@@H]2CCCN(N2)C(=O)[C@H](C)NC1=O [Compound 33] | < 100 | – | – | –
CC(C)[C@@H]1OC(=O)C(C)(C)/C=C/c2cc3cc(ccc3cn2)[C@@H](C)NC(=O)[C@@H]2CCCN(N2)C(=O)[C@H](C)NC1=O [Compound 69] | – | < 1000 | 100 | –
CC(C)[C@@H]1OC(=O)C2(/C=C/c3ccc4ccc(nc4c3)[C@@H](C)NC(=O)[C@@H]3CCCN(N3)C(=O)[C@H](C)NC1=O)CCS(=O)(=O)CC2 [Compound 106] | – | < 1000 | 95 | –
CC(C)[C@@H]1OC(=O)C(C)(C)/C=C/c2ccc3ccc(nc3c2)CNC(=O)[C@@H]2CCCN(N2)C(=O)[C@H](C)NC1=O [Compound 37] | < 100 | – | – | –
